Values after ≈ are worked out from the molar mass of the structure shown. Like-named read-outs stand apart in the source and are kept apart here.
Legend:
Format in all cases: cell-based
[1] = system: S. pyogenes; test: Broth dilution MIC determination (CLSI) against S. pyogenes strains; settings: for MIC: Streptococcus pyogenes
Procedure, shortened: (§1)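 MICs were determined by CLSI standard broth dilution against several strains per species, including multidrug-resistant and macrolide-resistant strains. Azithromycin and solithromycin served as control compounds.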

[2] = system: K. pneumoniae; test: Broth dilution MIC determination (CLSI) against K. pneumoniae strains; settings: for MIC: Klebsiella pneumoniae
Procedure, shortened: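 Azithromycin and solithromycin served as controls; MICs were obtained by standard CLSI broth dilution on a strain panel including multidrug-resistant and macrolide-resistant isolates.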

[3] = system: H. influenzae; test: Broth dilution MIC determination (CLSI) against H. influenzae strains; settings: for MIC: Haemophilus influenzae
Description: Minimum inhibitory concentrations (MICs) for macrolides described herein have been determined for unique strains of S. aureus, S. pneumoniae, S. pyogenes, E. faecalis, E. coli, A. baumannii, K. pneumoniae, P. aeruginosa, and H. influenzae, including several multidrug-resistant strains, with a special focus on macrolide resistant mechanisms. Azithromycin and solithromycin were included as control compounds. CLSI standard procedures for broth dilution MIC determination were used. Data for exemplary compounds described herein is shown in Tables M1-M7 and in Tables N1-N4.

[4] = system: E. faecalis; test: Broth dilution MIC determination (CLSI) against E. faecalis strains; settings: for MIC: Enterococcus faecalis
Procedure, shortened: as §1

[5] = system: E. coli; test: Broth dilution MIC determination (CLSI) against E. coli strains; settings: for MIC: Escherichia coli
Procedure, shortened: as §1

[6] = system: S. aureus; test: Broth dilution MIC determination (CLSI) against S. aureus strains; settings: for MIC: Staphylococcus aureus
Procedure, shortened: as §1

[7] = system: S. pneumoniae; test: Broth dilution MIC determination (CLSI) against S. pneumoniae strains; settings: for MIC: Streptococcus pneumoniae
Procedure, shortened: as §1

[8] = system: A. baumannii; test: Broth dilution MIC determination (CLSI) against A. baumannii strains; settings: for MIC: Acinetobacter baumannii
Procedure, shortened: as §1

[9] = system: P. aeruginosa; test: Broth dilution MIC determination (CLSI) against P. aeruginosa strains; settings: for MIC: Pseudomonas aeruginosa
Procedure, shortened: as §1

[10] = ATCC19615, ATCC19615, read-out: MIC S. pyogenes ATCC19615
[11] = macrolide-resistant, read-out: MIC S. pyogenes macrolide-resistant
[12] = ATCC10031, ATCC10031, read-out: MIC K. pneumoniae ATCC10031
[13] = KPC-2, read-out: MIC K. pneumoniae KPC-2
[14] = ATCC49247, ATCC49247, read-out: MIC H. influenzae ATCC49247
[15] = erythro > 4, azithro 1, read-out: MIC H. influenzae erythro > 4, azithro 1
[16] = ATCC29212, ATCC29212, read-out: MIC E. faecalis ATCC29212
[17] = Vancomycin-resistant, read-out: MIC E. faecalis Vancomycin-resistant
[18] = ATCC25922, ATCC25922, read-out: MIC E. coli ATCC25922
[19] = read-out: MIC E. coli NDM-1, NDM-1
[20] = ATCC29213, ATCC29213, read-out: MIC S. aureus ATCC29213
[21] = MRSA / USA100, MRSA: USA100, read-out: MIC S. aureus MRSA: USA100
[22] = MRSA / USA300, MRSA: USA300, read-out: MIC S. aureus MRSA: USA300
[23] = USA600, USA600, GISA, read-out: MIC S. aureus USA600, GISA
[24] = read-out: MIC S. aureus erm A genotype
[25] = ATCC49619, ATCC49619, read-out: MIC S. pneumoniae ATCC49619
[26] = erm B + mef A genotype, read-out: MIC S. pneumoniae erm B + mef A genotype
[27] = erm B + tet(M, O) genotype, read-out: MIC S. pneumoniae erm B + tet(M, O) genotype
[28] = read-out: MIC S. pneumoniae mef A genotype, mef A genotype
[29] = read-out: MIC S. pneumoniae mef A genotype, mef A genotype, first of two such columns (c3)
[30] = ATCC19606, ATCC19606, read-out: MIC A. baumannii ATCC19606
[31] = imipenem-resistant, read-out: MIC A. baumannii imipenem-resistant
[32] = ATCC27853, read-out: MIC P. aeruginosa ATCC27853

CCC1OC(=O)C(C)(F)C(=O)C(C)C(OC2OC(COC(=O)c3ccccc3)C(O)C(N(C)C)C2O)C(C)(OC)CC(C)CNC(C)C2N(CCCCn3cc(-c4cccc(N)c4)nn3)C(=O)OC12C (centres unmarked) [FSM-21798]
MIC S. pyogenes ATCC19615 ([1]; ATCC19615): 8 µg/mL (≈ 8.15 µM) | MIC S. pyogenes macrolide-resistant ([1]; macrolide-resistant): 32 µg/mL (≈ 32.6 µM) | MIC K. pneumoniae ATCC10031 ([2]; ATCC10031): >32 µg/mL | MIC K. pneumoniae KPC-2 ([2]; KPC-2): >32 µg/mL | MIC H. influenzae ATCC49247 ([3]; ATCC49247): >32 µg/mL | MIC H. influenzae erythro > 4, azithro 1 ([3]; erythro > 4, azithro 1): >32 µg/mL | MIC E. faecalis ATCC29212 ([4]; ATCC29212): 32 µg/mL (≈ 32.6 µM) | MIC E. faecalis Vancomycin-resistant ([4]; Vancomycin-resistant): >32 µg/mL | MIC E. coli ATCC25922 ([5]; ATCC25922): >32 µg/mL | MIC E. coli NDM-1 ([5]; NDM-1): >32 µg/mL | MIC S. aureus ATCC29213 ([6]; ATCC29213): >32 µg/mL | MIC S. aureus MRSA: USA100 ([6]; MRSA: USA100): >32 µg/mL | MIC S. aureus MRSA: USA300 ([6]; MRSA: USA300): >32 µg/mL | MIC S. aureus USA600, GISA ([6]; USA600, GISA): >32 µg/mL | MIC S. aureus erm A genotype ([6]; erm A genotype): >32 µg/mL | MIC S. pneumoniae ATCC49619 ([7]; ATCC49619): >32 µg/mL | MIC S. pneumoniae erm B + mef A genotype ([7]; erm B + mef A genotype): >32 µg/mL | MIC S. pneumoniae erm B + tet(M, O) genotype ([7]; erm B + tet(M, O) genotype): >32 µg/mL | MIC A. baumannii ATCC19606 ([8]; ATCC19606): >32 µg/mL | MIC A. baumannii imipenem-resistant ([8]; imipenem-resistant): >32 µg/mL | MIC P. aeruginosa ATCC27853 ([9]; ATCC27853): >32 µg/mL

CC[C@H]1OC(=O)[C@H](C)C(=O)[C@H](C)[C@@H](O[C@@H]2OC(CNC(=O)C(Cl)Cl)CC(N(C)C)C2O)[C@](C)(OC)C[C@@H](C)CN[C@H](C)[C@H]2N(CCCCn3cc(-c4cccc(N)c4)nn3)C(=O)O[C@]12C (some centres unmarked) [FSM-21842]
MIC [1, 10]: ≤ 0.0312 µg/mL | MIC [1, 11]: 0.5 µg/mL (≈ 0.524 µM) | MIC [2, 12]: 4 µg/mL (≈ 4.19 µM) | MIC [2, 13]: > 32 µg/mL | MIC ([2]; SHV-12, read-out: MIC K. pneumoniae SHV-12): > 32 µg/mL | MIC ([2]; TEM-10, read-out: MIC K. pneumoniae TEM-10): 32 µg/mL (≈ 33.5 µM) | MIC [3, 14]: 4 µg/mL (≈ 4.19 µM) | MIC [3, 15]: 4 µg/mL (≈ 4.19 µM) | MIC [4, 16]: 1 µg/mL (≈ 1.05 µM) | MIC [4, 17]: > 32 µg/mL | MIC [5, 18]: 16 µg/mL (≈ 16.8 µM) | MIC ([5]; read-out: MIC E. coli CTX-M-14, CTX-M-14): > 32 µg/mL | MIC [5, 19]: 32 µg/mL (≈ 33.5 µM) | MIC ([5]; read-out: MIC E. coli TEM-1, TEM-1): 16 µg/mL (≈ 16.8 µM) | MIC [6, 20]: 4 µg/mL (≈ 4.19 µM) | MIC [6, 21]: > 32 µg/mL | MIC [6, 22]: > 32 µg/mL | MIC [6, 23]: > 32 µg/mL | MIC [6, 24]: > 32 µg/mL | MIC [7, 25]: ≤ 0.0312 µg/mL | MIC [7, 26]: 8 µg/mL | MIC [7, 27]: ≤ 0.0312 µg/mL | MIC [7, 28]: 1 µg/mL (≈ 1.05 µM) | MIC [7, 29]: 0.125 µg/mL (≈ 0.131 µM) | MIC [8, 30]: 32 µg/mL (≈ 33.5 µM) | MIC ([8]; IMP-4, read-out: MIC A. baumannii IMP-4): > 32 µg/mL | MIC ([8]; chromosomal class C, read-out: MIC A. baumannii chromosomal class C): > 32 µg/mL | MIC [8, 31]: > 32 µg/mL | MIC [9, 32]: > 32 µg/mL | MIC ([9]; read-out: MIC P. aeruginosa HPA101-1477): > 32 µg/mL

CC[C@H]1OC(=O)[C@H](C)C(=O)[C@H](C)[C@@H](O[C@@H]2OC(CNC(=N)N)CC(N(C)C)C2O)[C@](C)(OC)C[C@@H](C)CN[C@H](C)[C@H]2N(CCCCn3cc(-c4cccc(N)c4)nn3)C(=O)O[C@]12C (some centres unmarked) [FSM-21843]
MIC [1, 10]: 2 µg/mL (≈ 2.26 µM) | MIC [1, 11]: 8 µg/mL (≈ 9.04 µM) | MIC [2, 12]: 32 µg/mL (≈ 36.2 µM) | MIC [2, 13]: > 32 µg/mL | MIC [3, 14]: 32 µg/mL (≈ 36.2 µM) | MIC [3, 15]: 32 µg/mL (≈ 36.2 µM) | MIC [4, 16]: > 32 µg/mL | MIC [4, 17]: > 32 µg/mL | MIC [5, 18]: > 32 µg/mL | MIC [5, 19]: > 32 µg/mL | MIC [6, 20]: > 32 µg/mL | MIC [6, 21]: > 32 µg/mL | MIC [6, 22]: > 32 µg/mL | MIC [6, 23]: > 32 µg/mL | MIC [6, 24]: > 32 µg/mL | MIC [7, 25]: 0.5 µg/mL (≈ 0.565 µM) | MIC [7, 26]: 32 µg/mL | MIC [7, 27]: 0.25 µg/mL | MIC [7, 28]: 8 µg/mL (≈ 9.04 µM) | MIC [7, 29]: 4 µg/mL (≈ 4.52 µM) | MIC [8, 30]: > 32 µg/mL | MIC [8, 31]: > 32 µg/mL | MIC [9, 32]: > 32 µg/mL

From patent publication US11535643B2, “Macrolides with modified desosamine sugars and uses thereof” (President and Fellows of Harvard College, priority 2015, dated 2022)
